Reference: patent publication US6500853B1, “Inhibitors of phospholipase enzymes” (Genetics Institute, LLC, priority 1998, dated 2002)
Each block holds one molecule with its values, some of them ahead of it.

What was measured:
cPLA2 = biological target: T1, cPLA2 (Homo sapiens, UniProt P47712); assay: Coumarin Assay (cPLA2 inhibition); assay type: biochemical; settings: for inhibition at 1.8 µM: CONCENTRATION 1.8 micromolar
T1 sequence (P47712 1-749): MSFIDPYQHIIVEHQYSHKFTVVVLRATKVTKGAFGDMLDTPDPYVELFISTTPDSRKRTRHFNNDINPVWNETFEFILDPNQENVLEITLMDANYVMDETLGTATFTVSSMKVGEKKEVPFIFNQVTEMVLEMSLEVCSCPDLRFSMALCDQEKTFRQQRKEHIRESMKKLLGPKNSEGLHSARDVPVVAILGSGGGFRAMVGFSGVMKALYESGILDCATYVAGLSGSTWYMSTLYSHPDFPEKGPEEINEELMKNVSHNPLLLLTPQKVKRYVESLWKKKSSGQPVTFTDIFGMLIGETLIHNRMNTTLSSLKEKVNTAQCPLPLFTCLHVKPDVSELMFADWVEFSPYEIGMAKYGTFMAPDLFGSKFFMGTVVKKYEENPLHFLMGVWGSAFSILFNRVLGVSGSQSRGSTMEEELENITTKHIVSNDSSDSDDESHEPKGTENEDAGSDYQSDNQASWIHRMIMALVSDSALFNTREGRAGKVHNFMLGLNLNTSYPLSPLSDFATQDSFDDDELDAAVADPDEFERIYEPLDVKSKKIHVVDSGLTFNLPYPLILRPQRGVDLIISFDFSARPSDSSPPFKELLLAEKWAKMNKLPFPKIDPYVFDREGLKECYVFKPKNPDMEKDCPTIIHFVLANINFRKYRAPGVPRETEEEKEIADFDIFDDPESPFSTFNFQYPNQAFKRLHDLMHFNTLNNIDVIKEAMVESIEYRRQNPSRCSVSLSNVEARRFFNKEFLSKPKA
How it was run: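 Percent inhibition at the stated concentration, from the rate of 460 nm emission rise (360 nm excitation) per minute. Reaction started by adding 4 μg enzyme to compound and 60 μM 7-hydroxycoumarinyl 6-heptenoate in Hepes buffer pH 7.5 with 1 mM EDTA.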

[1] = tested on: Rat Carrageenan-Induced Footpad Edema; assay: Rat Carrageenan-Induced Footpad Edema Test; assay type: in vivo, male Sprague Dawley rats; settings: footpad volume 3 hours after carrageenan; for inhibition in vivo at 5 mg/kg / inhibition in vivo at 2 mg/kg / inhibition in vivo at 10 mg/kg: Rattus norvegicus, 3 h, read-out: PERCENT INHIBITION; for inhibition in vivo at 5 mg/kg: iv, IV; for PERCENT INHIBITION / inhibition in vivo at 2 mg/kg / inhibition in vivo at 10 mg/kg: PO; for inhibition in vivo at 2 mg/kg / inhibition in vivo at 10 mg/kg: po
[2] = CONCENTRATION 2.5 micromolar, read-out: PERCENT INHIBITION @

- inhibition at 1.75 µM (cPLA2; CONCENTRATION 1.75 micromolar, read-out: PERCENT INHIBITION @): 50%
- inhibition at 1.8 µM (cPLA2; read-out: PERCENT INHIBITION @): 50%
- inhibition at 1.9 µM (cPLA2; CONCENTRATION 1.9 micromolar, read-out: PERCENT INHIBITION @): 50%
- inhibition at 2 µM (cPLA2; CONCENTRATION 2 micromolar, read-out: PERCENT INHIBITION @): 50%
- inhibition at 2.1 µM (cPLA2; CONCENTRATION 2.1 micromolar, read-out: PERCENT INHIBITION @): 50%
- inhibition at 2.5 µM (cPLA2; [2]): 74%
Structure (SMILES): COc1cc(C(=O)NS(=O)(=O)C(F)(F)F)ccc1Cc1cn(C(c2ccccc2)c2ccccc2)c2ccc(NS(=O)(=O)Cc3ccccc3)cc12 [Example 45, N-[4-({1-benzhydryl-5-[(benzylsulfonyl)amino]-1H-indol-3-yl}methyl)-3-methoxybenzoyl](trifluoro)methanesulfonamide]
- inhibition in vivo at 5 mg/kg [1]: 10.2%

- inhibition at 2.2 µM (cPLA2; CONCENTRATION 2.2 micromolar, read-out: PERCENT INHIBITION @): 50%
- inhibition at 2.5 µM (cPLA2; [2]): 67%
- inhibition at 2.7 µM (cPLA2; CONCENTRATION 2.7 micromolar, read-out: PERCENT INHIBITION @): 50%
- inhibition at 3.5 µM (cPLA2; CONCENTRATION 3.5 micromolar, read-out: PERCENT INHIBITION @): 50%
- inhibition at 4.5 µM (cPLA2; CONCENTRATION 4.5 micromolar, read-out: PERCENT INHIBITION @): 50%
Structure (SMILES): COc1cc(C(=O)NS(=O)(=O)C(F)(F)F)ccc1Cc1cn(C(c2ccccc2)c2ccccc2)c2ccc(NC(=O)c3ccsc3)cc12 [Example 46, N-{1-benzhydryl-3-[2-methoxy-4-({[(trifluoromethyl)sulfonyl]amino}carbonyl)benzyl]-1H-indol-5-yl}-3-thiophenecarboxamide]
- inhibition in vivo at 5 mg/kg [1]: 4.58%

- inhibition at 1.5 µM (cPLA2; CONCENTRATION 1.5 micromolar, read-out: PERCENT INHIBITION @): 50%
- inhibition at 1.8 µM (cPLA2; read-out: PERCENT INHIBITION @): 50%
- inhibition at 2.3 µM (cPLA2; CONCENTRATION 2.3 micromolar, read-out: PERCENT INHIBITION @): 50%
Structure (SMILES): COc1cc(C(=O)NS(=O)(=O)C(F)(F)F)ccc1Cc1cn(C(c2ccccc2)c2ccccc2)c2ccc(NC(=O)OCc3ccccc3)cc12 [Example 49, benzyl N-{1-benzhydryl-3-[2-methoxy-4-({[(trifluoromethyl)sulfonyl]amino}carbonyl)benzyl]-1H-indol-5-yl}carbamate]
- inhibition in vivo at 5 mg/kg [1]: 18%

Structure (SMILES): O=C(O)c1ccc(Cc2cn(C(c3ccccc3)c3ccccc3)c3ccc([N+](=O)[O-])cc23)cc1 [Example 50, 4-[(-benzhydryl-5-nitro-1H-indol-3-yl)methyl]benzoic acid]
- PERCENT INHIBITION @ (cPLA2; CONCENTRATION 0.8 micromolar): 50%
- PERCENT INHIBITION @ (cPLA2; CONCENTRATION 0.85 micromolar): 50%
- PERCENT INHIBITION @ (cPLA2; CONCENTRATION 1.05 micromolar): 50%
- PERCENT INHIBITION @ (cPLA2; CONCENTRATION 2.5 micromolar): 81%
- PERCENT INHIBITION ([1]; 2 mg/Kg): 5.44%
- PERCENT INHIBITION ([1]; 10 mg/Kg): 12.34%

- inhibition at 0.6 µM (cPLA2; CONCENTRATION 0.6 micromolar, read-out: PERCENT INHIBITION @): 50%
- inhibition at 0.8 µM (cPLA2; CONCENTRATION 0.8 micromolar, read-out: PERCENT INHIBITION @): 50%
- inhibition at 0.9 µM (cPLA2; CONCENTRATION 0.9 micromolar, read-out: PERCENT INHIBITION @): 50%
Structure (SMILES): O=C(O)c1ccc(Cc2cn(C(c3ccccc3)c3ccccc3)c3ccc(Br)cc23)cc1 [Example 51, 4-[(1-benzhydryl-5-bromo-1H-indol-3-yl)methyl]benzoic acid]
- inhibition in vivo at 2 mg/kg ([1]; 2 mg/Kg): 3.23%
- inhibition in vivo at 10 mg/kg ([1]; 10 mg/Kg): 15.4%

- inhibition at 19 µM (cPLA2; CONCENTRATION 19 micromolar, read-out: PERCENT INHIBITION @): 50%
- inhibition at 20 µM (cPLA2; CONCENTRATION 20 micromolar, read-out: PERCENT INHIBITION @): 50%
Structure (SMILES): O=C(Nc1ccc2c(c1)c(Cc1ccc(C(=O)O)cc1)cn2C(c1ccccc1)c1ccccc1)OC1CCCC1 [Example 52, 4-[(1-benzhydryl-5-{[(cyclopentyloxy)carbonyl]amino}-1H-indol-3-yl)methyl]benzoic acid]
- inhibition in vivo at 2 mg/kg ([1]; 2 mg/Kg): -6.75%
- inhibition in vivo at 10 mg/kg ([1]; 10 mg/Kg): 3.33%

- PERCENT INHIBITION @ (cPLA2; CONCENTRATION 11 micromolar): 50%
- PERCENT INHIBITION @ (cPLA2; CONCENTRATION 15.5 micromolar): 50%
Structure (SMILES): Cc1ccccc1S(=O)(=O)NC(=O)c1ccc(Cc2cn(C(c3ccccc3)c3ccccc3)c3ccc(NC(=O)OC4CCCC4)cc23)cc1 [Example 53, cyclopentyl N-{1-benzhydryl-3-[4-({[(2-methylphenyl)sulfonyl]1amino}carbonyl)benzyl]-1H-indol-5-yl}carbamate]
- PERCENT INHIBITION ([1]; 2 mg/Kg): −1.81%
- PERCENT INHIBITION ([1]; 10 mg/Kg): 11.35%

- PERCENT INHIBITION @ (cPLA2; CONCENTRATION 2.8 micromolar): 50%
- PERCENT INHIBITION @ (cPLA2; CONCENTRATION 3.9 micromolar): 50%
Structure (SMILES): O=C(Nc1ccc2c(c1)c(Cc1ccc(C(=O)NS(=O)(=O)C(F)(F)F)cc1)cn2C(c1ccccc1)c1ccccc1)OC1CCCC1 [Example 54]
- PERCENT INHIBITION ([1]; 2 mg/Kg): 2.47%
- PERCENT INHIBITION ([1]; 10 mg/Kg): 14.29%

- inhibition at 1.35 µM (cPLA2; CONCENTRATION 1.35 micromolar, read-out: PERCENT INHIBITION @): 50%
Structure (SMILES): O=C(NS(=O)(=O)C(F)(F)F)c1ccc(Cc2cn(C(c3ccccc3)c3ccccc3)c3ccc([N+](=O)[O-])cc23)cc1 [Example 55, N-{4-[(1-benzhydryl-5-nitro-1H-indol-3-yl)methyl]benzoyl}(trifluoro)methanesulfonamide]
- inhibition in vivo at 2 mg/kg ([1]; 2 mg/Kg): 7.02%
- inhibition in vivo at 10 mg/kg ([1]; 10 mg/Kg): 21.5%
